In patent US20020055130A1, “Method and product for regulating apoptosis” (National Jewish Center for Immunology and Respiratory …, priority 1997, published 2002):

Columns and labels:
JNK = JNK assay (solid state kinase assay with GST-Jun), L929 cells; format: cell-based, murine; conditions: for effect on JNK activity: bFGF 2.5 ng/ml, PD #098059 pretreatment; for effect on TNFα stimulation of JNK: co-stimulation or IPTG-induced Ras expression
Experimental: JNK assay. JNK activity was measured using a solid state kinase assay in which glutathione S-transferase-c-Jun(1-79) (GST-JUN) cound to glutathione-Sepharose 4B beads was used to affinity pruify JNK and then JNK activity was measured in an in vitro kinase assay using the sepharose bound GST-Jun as a substrate (Hibi, M., et al. (1993) Genes & Development 7:2135-2148). Stimulated or unstimulated cells were lysed in 0.5% Nonidet P-40, 20 mM HEPES pH 7.2, 100 mM NaCl, 2 mM dithiothreitol, lmM EDTA, 1.0 mM phenylmethylsulfonylfluoride, 1 μg/ml aprotinin and the nuclei pelleted. Lysates were normalized for protein content. […] Binding to GST-Jun efficiently isolates the two major forms of JNK (p45and p55) and under the conditions used JNK isolation was linear for 10-250 μg of cell lysate. The lysates were rotated at 4° C. for 1-3 h. Beads were washed twice in lysis buffer and then twice in PAN (10 mM PIPES, pH 7.0, 100 mM NaCl, 21 μg/ml aprotinin). Kinase reactions were carried out at 30° C. for 15 min in 20 mM Hepes pH 7.2, 20 mM β-glycerophosphate, 10 mMp-nitrophenyl phosphate, 10 mM MgCl2, 1 mM dithiothreitol, 50 μm sodium vanadate, 10 μCi γ^32P-ATP 4300 Ci/mmole. The kinase reaction was linear from 0-30 min.

L929 cells = experiment: TNFα-mediated apoptosis of L929 cells (neutral red assay, propidium iodide staining); format: cell-based, murine; conditions: for effect on TNFα-mediated cell death / apoptosis / effect on the protective action of bFGF against TNFα-mediated cell death: L929 cells
Experimental: Cell lines and culture. L929 cells (ATCC CCL1 were maintained in Dulbecco's modified Eagle's medium with 5% newborn claf serum and 5% bovine calf serum (BCS) supplemented with 100 ug/ml streptomycin and 100U/ml penicillin. The cells were grown in 10 cm dishes at 37° C. in 7.5% CO2. Cells were made quiescent where indicated by incubation in Dulbecco's modified Eagle's medium and 0.1% bovine serum albumin for 24 h. Recombinant murine TNFα and recombinant humanbFGF (147aa) were from R&D Systems, Minneapolis, Minn. Cells were pretreated where indicated with the MEK-1 inhibitor PD#098059 (Parke-Davis Pharmaceutical Corp. Ann Arbor, Mich.) for 1 h at 37° C. Cells were stimulated by incubation with the indicated cytokine or growth factor for various times at 37° C. […] Stimulation was stopped by rinsing the plates twice with ice cold phosphate buffered saline (PBS) and lysing the cells in the appropriate lysis buffer. Cells were scraped from the plates and nuclei were pelleted for 10 min at 14,000 RPM in a microcentrifuge.
Neutral Red Assay Uptake of the dye neutral red was used as one measure of cell viability following cytokine or growth factor treatment (Finter, N. B. (1969) J. Gen Virol. 5:419-427). 1.5×10^4-2.5×10^5 L929 cells/well were plated in 12 well tissue culture dishes in 1.25 ml of media. Cells were treated for 15-20 hr with various concentrations of TNFα and/or bFGF. 2.5 μl of 1% neutral red was added to the wells and incubated for 2 hr at 37° C. PBS. The neutral red was extracted with 1.0 ml of 50% ethanol, 50 mM Na-citrate pH 4.2 and absorbency was measured at […].
Propidium iodide staining Cells were plated on glass chamber slides (Nunc, Naperville, Ill.) at a concentration of 0.2-0.6×10^5 cells/ml. Ras expression was induced with 5 mM IPTG in Dulbecco's modified Eagle's medium with 0.1% BCS for 8-12 hr. Cells were exposed to TNFα (5 ng/ml) and/or bFGF (500 pg/ml) in Dulbecco's modified Eagle's medium with 0.1% BCS for 16 hr. The parental LACI expressing cell line (see below) was used as a control. Cells were washed twice in PBS, fixed in acetone:methanol (1:1) −20° C. for 5 min, air dried, washed twice in PBS, stained with 1 μg/ml propidium iodide (PI) in PBS for 20 min, washed in PBS, washed in H2O and mounted in 25% glycerol/PBS. PI fluorescence was observed using a Nikon inverted microscope equipped with epifluorescence and a […] filter. Images were analyzed using IP lab.

p42/p44 MAPK = experiment: MAPK assay (EGFR662-681 peptide), L929 cells; format: cell-based, murine
Experimental: MAPK Assay MAPK activity was measured exactly as described previously (Gardner, A. M., et al. (1994) Meth. Enzymol. 238:258-270) with the exception that MonoQ FPLC fractionation was replaced by step elution from a DEAE-Sephacel column using 0.5 M NaCl in loading buffer. The eluate was assayed in triplicate using the epidermal growth factor receptor 662-681 peptide (EGFR662-681) as a selective substrate for MAPK activity (Heasley, L. E., et al. (1994) American Journal of Physiology (Renal Fluid Electrolyte Physiol. 36) 267:F366-F373).

endogenous MEKK1 protein = experiment: Cleavage of endogenous MEKK1 after genotoxic stress stimuli (immunoblot); format: cell-based, Human; conditions: HEK293 cells
Experimental: 200-400 μg cell lysate protein was subjected to SDS-9% PAGE and transferred to nitrocellulose membranes. Blots were performed exactly as described (Widmann et al., 1995). To detect HA-tagged proteins, the mouse monoclonal antibody 12CA5 (Babco) was used as the primary antibody, followed by a rabbit anti-mouse antibody (Cappel). HRP-conjugated protein A at a 1/5000 dilution (Zymed) and ^125I-protein A at a 1/500 dilution (Dupont NEN) were then used for enhanced chemiluminescence (ECL) detection and for quantification using the phosphorimager. To detect MEKK1, 3 different ploclonal antisera were used as primary antibodies, followed by ECL detection using HRP-protein A (see above). These sera were generated by injecting rabbits with GST proteins fused with different portions of the MEKK1 protein.
Several genotoxic stress stimuli were applied to HEK293 cells and their effect on the MEKK1 protein was assessed.

Raf-B = Raf-B immunoprecipitate in vitro kinase assay, EGF treated PC12 cells; format: cell-based; conditions: EGF 30 ng/ml timecourse
Experimental: (§1) Reactions were stopped by the addition of 2× SDS sample buffer (20 μl). The samples were boiled for 3 minutes and subjected to SDS-PAGE and autoradiography. Raf-B was immunoprecipitated from the same untreated and treated PC 12 cell lysates as above with an antiserum to a COOH-terminal peptide of Raf-B (Santa Cruz Biotechnology, Inc.) and assayed similarly. Raf-1 was immunoprecipitated with an antiserum to the 12 COOH-terminal amino acids of Raf-1 (Santa Cruz Biotechnology, Inc.).

MEKK1 = MEKK1 immunoprecipitate in vitro kinase assay (MEK-1 phosphorylation), growth factor treated PC12 cells; format: cell-based; conditions: for MEKK1 activity: serum starved PC12 cells, EGF 30 ng/ml or NGF 100 ng/ml, 5 minutes
c-Raf-1 = experiment: Raf-1 immunoprecipitate in vitro kinase assay, growth factor treated PC12 cells; format: cell-based; conditions: in comparison to MEKK1 or Raf-B
Experimental: as §1

C-Raf = experiment: Raf activation assay (kinase-inactive MEK-1 phosphorylation), L929 cells; format: cell-based, murine
Experimental: (§2) RafActivation Assay Cells were serum starved and challenged in the presence or absence of the appropriate cytokine or growth factors, as described above. Cells were lysed by scraping in ice cold RIPA buffer (50 mM Tris-HCl, pH 7.2, 150 mM NaCl, 0.1% SDS, 0.5% sodium deoxycholate, 1.0% Triton X-100, 10 mM sodium pyrophosphate, 25 mM β-glycerophosphate, 2 mM sodium vanadate, 2.1 µg/ml aprotinin) and the nuclei were pelletted. The supernatants were normalized for protein content and precleared with protein A Sepharose prior to immunoprecipitation with rabbit antiserum to the C terminus of C-Raf, rabbit anti-serum to A-Raf or rabbit antiserum to B-Raf (Santa Cruz Biotech., Santa Cruz, Calif.) and protein A Sepharose for 2-3 hr at 4° C. The beads were washed twice with ice cold RIPA and twice with PAN. A third of the immunoprecipitate was diluted with SDS sample buffer and used for immunoblot analysis. […] Wild-type recombinant MEK-1 was autophosphorylated in parallel as a marker. Reactions were terminated by the addition of 12.5 μl 5× SDS sample buffer, boiled, and subjected to SDS-PAGE and autoradiography.

B-Raf = experiment: as above; format: cell-based, murine
Experimental: as §2

[1] = system: Swiss 3T3 cells and REF52 cells; experiment: Beauvericin-induced apoptosis (anti-tubulin and propidium iodide staining); format: cell-based; conditions: 50 μM, 6 hours, 37° C.
Experimental: A first group of transfected Swiss 3T3 cells and REF52 cells were treated with 50 μM beauvericin for 6 hours at 37° C. Beauvericin is a compound known to induce apoptosis in mammalian cells. A second group of cells were treated with a control buffer lacking beauvericin. The treated cells were then fixed in parafornaldehyde and permeabilized with saponin using protocols standard in the art. The permeabilized cells were then labelled by incubating the cells with a fluorescein-labelled anti-tubulin antibody (1:500; obtained from GIBCO, Gaithersburg, Md.) to detect cytoplasmic shrinkage or 10 μM propidium iodide (obtained from Sigma, St. Louis, Mo.) to stain DNA to detect nuclear condensation. The labelled cells were then viewed by differential fluorescent imaging using a Nikon Diaphot fluorescent microscope.

Swiss 3T3 cells = experiment: Quantitation of MEKKCOOH-induced cell death after nuclear microinjection; format: cell-based
Experimental: Swiss 3T3 and REF52 cells were plated on acid-washed glass cover slips in Dulbecco's Modified Eagle's Medium (DMEM) and 10% bovine calf serum (BCS) or newborn calf serum (NCS). Cells were placed in DMEM/0.1% calf serum for overnight incubation prior to microinjection and used for injection at 50-70% confluence. Injections were performed with an Eppendorf automated microinjection system with needles pulled from glass capillaries on a vertical pipette puller (Kopf, Tujunga, Calif.). Cells were injected with pCMVβ-gal in the presence or absence of pCMV5MEKKCOOH or pCMV5BxBRaf at 20-100 ng/μl for each expression plasmid in 100 mM KC1, 5 mM NaPO4, pH 7.3. […] Similar results were obtained when cells were placed in 10% NCS after microinjection. Propidium iodide (5 pg/ml) was used to stain DNA. X-Gal reactions were performed for six hr.
Seventeen hours after injection cells were fixed and stained for β-galactosidase activity with X-Gal. Injected cells attached to the coverslip were scored as positive for cell death when they were highly condensed, small round cells.

Molecule: COc1cccc(-c2cc(=O)c3ccccc3o2)c1N [PD #098059, reference compound]
- effect on JNK activity (JNK): did not inhibit JNK kinase or the activation of JNK
- effect on TNFα-mediated cell death / apoptosis (L929 cells): no effect on TNFα-mediated apoptosis
- effect on the protective action of bFGF against TNFα-mediated cell death (L929 cells): inhibited the protective action of bFGF
- effect on bFGF stimulation of MAPK activity (p42/p44 MAPK; L929 cells): inhibited bFGF stimulation of MAPK activity

Molecule: N.N.[Cl][Pt][Cl] [cisplatin]
- effect on full length MEKK1 protein (endogenous MEKK1 protein): induced the loss of full length MEKK1
- full length MEKK1 remaining after treatment (endogenous MEKK1 protein): no full length MEKK1 protein remaining

Molecule: EGF: epidermal growth factor
- time to peak Raf-B activity (Raf-B): 3 to 5 min
- persistence of MEKK1 activation (MEKK1; EGF 30 ng/ml timecourse): at least 30 minutes
- MEKK1 activity (MEKK1): increased MEKK1 activity
- activation of c-Raf-1 (c-Raf-1): almost negligible

Molecule: N17 Ras: HA-tagged inhibitory N17 Ras, IPTG-inducible in L929 cells [reference compound]
- effect on TNFα stimulation of JNK (JNK): no effect on TNF stimulation of JNK
- effect on TNFα-mediated cell death / apoptosis (L929 cells): did not affect TNFα induced apoptosis
- effect on the protective action of bFGF against TNFα-mediated cell death (L929 cells): markedly inhibit the ability of bFGF to protect cells
- effect on bFGF stimulation of MAPK activity (p42/p44 MAPK; L929 cells): significantly blunted bFGF stimulation of MAPK

Molecule: NGF: growth factor used at 100 ng/ml on PC12 cells
- MEKK1 activity (MEKK1): slight increase in MEKK1 activity
- activation of c-Raf-1 (c-Raf-1): almost negligible

Molecule: bFGF: recombinant human basic fibroblast growth factor (147aa)
- effect on JNK activity (JNK): little or no effect on JNK activity
- effect on TNFα stimulation of JNK (JNK): did not alter the magnitude of JNK activation
- C-Raf activation (C-Raf): activation of both B-Raf and C-Raf
- B-Raf activation (B-Raf): activation of both B-Raf and C-Raf
- effect on TNFα-mediated cell death / apoptosis (L929 cells): effective at blocking TNFα-mediated cell death
- cell number (L929 cells; in the absence of TNFα): did not measurably increase cell number
- concentrations giving maximal stimulation of MAPK activity (p42/p44 MAPK): 0.25 to 0.5 ng/mL
- MAPK activity (p42/p44 MAPK; L929 cells, TNFα 1 ng/ml where stated): robust activation of MAPK

Molecule: beauvericin
- apoptotic morphology [1]: cytoplasmic shrinkage (monitored by the anti-tubulin antibodies) and nuclear condensation

Molecule: β-gal: expression plasmid encoding β-galactosidase, injected alone as control
- injected cells with an altered morphology (Swiss 3T3 cells; 48-72 hours post-injection): < 1%
- Condensed Cells (number) (Swiss 3T3 cells; Swiss 3T3 cells, 100 ng/μl plasmids, seventeen hours after injection, highly condensed, small round cells): 4
- Condensed Cells (%) (Swiss 3T3 cells; Swiss 3T3 cells, 100 ng/μl plasmids, seventeen hours after injection, percent of cells injected): 1%
